According to patent US8408292B2, “Method for pre-treatment of subterranean sites adjacent to water injection wells” (E.I. du Pont de Nemours and Company, priority 2010, dated 2013):

What was measured:
[1] = Example 2: titration of amine coated core sand in brine #2 with 1N HCl, amine in solution by GC; type: physicochemical; details: core sand in brine #2, titrated with 1N HCl
Experimental: Helium was used as the carrier gas.
38 milligrams (mg) of N N-Dimethyl-1-Dodecanamine (hereafter referred to as “the amine”) was added to 10.210 gr of Pentane. This solution was added to 10.1845 gr of specific sand layers (Oa and Ob) obtained from the Schrader Bluff formation of the Milne Point Unit of the Alaskan North slope. The oil content of the sand was first removed using a mixture of methanol and toluene (50/50, volume/volume) as solvent washes. The solvent mixture was subsequently evaporated off the core sand to produce clean, dry, flowable core sand. This sand was mixed with the amine and pentane solution to produce a slurry. This slurry was thoroughly mixed and the pentane was evaporated off leaving the amine on the sand (hereafter referred to as sand/amine mixture). 100 ml of brine #2 (Table 3) was added to the sand/amine mixture to create the sand/amine/brine mixture. […] The fact that the amine was not detected underlined its strong binding to the sand particles. […] The data underlines the remarkable efficiency of an acid at ionizing and removing the amine from the sand.

[2] = Example 4: titration of sand/amine/brine mixture with 10% nitric acid, amine in solution by GC; details: core sand in brine #2, titrated with 10 wt % nitric acid
Experimental: (§1) Concentration of amines, in media and water, were analyzed by gas chromatography (GC). An Agilent Model 5890 (Agilent, Wilmington, Del.), GC equipped with a […] and a split/splitless injector, a DB-FFAP column (30 meter length×0.32 millimeter (mm) […]×0.25 micrometer particle size). […] The system was calibrated using a sample of N,N-Dimethyl-1-Dodecaneamine (Aldrich). Helium was used as the carrier gas. A temperature gradient of 50 degrees Celsius (° C.) to 250° C. at 30° C. increase per minute (min) was used.
The procedure outlined in Example 2 was used to produce the sand/amine mixture except that 519 mg of the amine, 10 gr of Pentane. and 60.062 gr of sand from the Oa and Ob layers were used. 29.065 gr of this sand/amine mixture was added to 100 ml of brine #2 (Table 3) to create the sand/amine/brine mixture. […] The concentration of the amine in the water should have been about […] if all the amine was dissolved in brine #2. […] 0.1 ml of 10 weight percent (wt %) nitric acid in water was added to this solution, and the pH and the amine concentration were measured again.

[3] = Example 5: titration of sand/amine/brine mixture with 10% acetic acid, amine in solution by GC; details: core sand in brine #2, titrated with 10 wt % acetic acid
Experimental: as §1
The same procedure outlined in Example 4 was repeated here to produce the sand/amine mixture. 30.85 grams (gr) of the sand/amine mixture was added to 100 ml of brine #2 (Table 3) to create the sand/amine/brine mixture.

Which “pH below which complete ionization and solubilization of the amine in the water was observed” value [1] does the source give for `CCCCCCCCCCCCN(C)C` [N-N-dimethyl-1-dodeanamine, N N-Dimethyl-1-Dodecanamine] here?
Its value is ~6.0 pH.

And the “pH below which complete ionization and solubilization in the water of the amine was observed” value [2]?
The value was ~6.7 pH.

And the “pH below which complete ionization and solubilization in the water of the amine was observed” value [3]?
The value was ~6.7 pH.
